Measurements reported in US6747063B2, “Combination therapy for treatment of erectile dysfunction” (Cellegy Pharmaceuticals, Inc., priority 1996, dated 2004).
Several values for one entry are separate records, joined by “and”; a condition that tells them apart may be missing. Equal entries are not always repeated. No end group written: not given here.

Legend:
[1] = system: penile erection in patients with previously diagnosed ED; test: Erectile response (Rigiscan tumescence and rigidity) after intracavernous injection, patients with no prior PGE1; format: in vivo, human; settings: Phase 1 (n=9)
[2] = system: penile pain in patients with previously diagnosed ED; test: Patient-reported drug-related pain after intracavernous injection, patients with no prior PGE1; format: in vivo, human; settings: Phase 2; IC PGE1 5 and 15 μg alone or with SNP 50 μg
Protocol: Patients were fifted with the Rigiscan™ tumescence and rigidity recording device. The patients were injected with the intracavernous (IC) drug using up to 2 different doses (PGE1 alone or in combination with sodium nitroprusside (SNP50 μg)) and monitored in real-time for their erectile response. Patients were only given a second injection (higher dose PGE1) if the response to the first injection was less than 70% of maximum tumescence and rigidity. In addition, patients were asked to report any occurrence of pain specific to the injection, but not related to acute discomfort associated with the needle prick.

[3] = system: penile pain in patients with prior use of PGE1; test: Penile pain in patients with clinical history of pain with prostaglandin therapy (case reports); settings: human, in vivo
Protocol: (§1) As detailed below, one of three different modes of administration of NO producing agents were used depending upon the patient. In particular, each of these individuals received a NO donor either through the use of a nitrospray such as Nitrolingual™ or a transdermal patch delivering a NO donor compound, and in three cases, a combination of PGE1 and 50 μg of SNP (in saline or phosphate buffered saline (PBS)).

[4] = system: penile erection in patients with prior use of PGE1; test: Erection in patients with clinical history of pain with prostaglandin therapy (case reports); format: in vivo, human; settings: Case No. 2; 10 μg PGE1 at home
Protocol: as §1

[5] = system: penile pain in patients using PGE1; settings: cited from earlier work
[6] = system: human cavernous artery and cavernosal smooth muscle; settings: cited from earlier work; for interaction of relaxant effects of the two agents: human cavernous artery and cavernosal smooth muscle; for relaxation response: isolated cavernous artery and corpus cavernosum
[7] = in vivo; cited from earlier work

## CCCCC[C@H](O)/C=C/[C@H]1[C@H](O)CC(=O)[C@@H]1CCCCCCC(=O)O [PGE1, prostaglandin E1]
[1]; IC PGE1 5 μg at 1st visit, PGE1 5 μg+SNP 50 μg at 2nd visit
  patients with a poor response to both injections: 4 of 9
[1]; lowest dose of PGE1 alone (5 μg IC)
  patients who experienced full tumescence: 2/9
[2]
  patients who experienced drug-related pain: None
[3]
  duration of pain: three to four hours
[4]
  erectile response: poor response
[5]; repeated / prolonged use of PGE1
  patients reporting a pain response: 40 to 45% and 40-45%
[5]; single use of PGE1
  individuals with a pain response / frequency of pain per injection: 3 to 10%
[5]; transurethral administration, clinic testing
  men reporting penile pain: 35.7%

## [NH-]c1c[n+](N2CCOCC2)no1 [SIN-1, 3-morpholinosydnonimine molsidomine]
[6]
  interaction of relaxant effects of the two agents: non-synergistic independent relaxant effects
  relaxation response: capacity to induce complete relaxations

## O=[N+]([O-])OCC(CO[N+](=O)[O-])O[N+](=O)[O-] [glyceryl trinitrate]
[7]
  concentration in plasma: 0.2 to 0.4 ng/mL

## vasoactive intestinal peptide (HSDAVFTDNYTRLRKQMAVKKYLNSILN; ends and bridges not checked; UniProt P01282 125-152, looked up) [VIP]
[6]
  interaction of relaxant effects of the two agents: non-synergistic independent relaxant effects
  relaxation response: not capable of causing concentration dependent relaxation responses
